Assay results: publication PMC5218480 (PLoS ONE, 2017)

Test system: MV-4-11 cells
Assay: Gene expression microarray analysis (Affymetrix PrimeView) and GSEA
Type: cell-based, human
Parameters: RFU PODN (11730768_x_at) / Fold change /veh PODN (11730768_x_at) / RFU LINC00158 (11744669_a_at) / Fold change /veh LINC00158 (11744669_a_at) / RFU DUSP10 (11751237_a_at) / Fold change /veh DUSP10 (11751237_a_at) / RFU ID3 (11757404_x_at) / Fold change /veh ID3 (11757404_x_at) / RFU PLEKHG5 (11737974_s_at) / Fold change /veh PLEKHG5 (11737974_s_at) / RFU LRRC4B (11730491_at) / Fold change /veh LRRC4B (11730491_at) / RFU GIMAP4 (11747438_a_at) / Fold change /veh GIMAP4 (11747438_a_at) / RFU KRT8 (11758183_x_at) / Fold change /veh KRT8 (11758183_x_at) / RFU CNN1 (11734310_a_at) / Fold change /veh CNN1 (11734310_a_at) / RFU VPS37D (11726825_at) / Fold change /veh VPS37D (11726825_at) / RFU C10orf10 (11716522_x_at) / Fold change /veh C10orf10 (11716522_x_at) / RFU KIR2DL2 /// KIR2DL4 /// KIR2DL5A /// KIR2DL5B /// KIR2DS1 /// KIR2DS2 /// KIR2DS3 /// KIR2DS4 /// KIR3DL3 /// KIR3DL3 /// KIR3DS1 (11738374_at) / Fold change /veh KIR2DL2 /// KIR2DL4 /// KIR2DL5A /// KIR2DL5B /// KIR2DS1 /// KIR2DS2 /// KIR2DS3 /// KIR2DS4 /// KIR3DL3 /// KIR3DL3 /// KIR3DS1 (11738374_at) / RFU C1QL1 (11718748_at) / Fold change /veh C1QL1 (11718748_at) / RFU TMPRSS4 (11747572_a_at) / Fold change /veh TMPRSS4 (11747572_a_at) / RFU HAMP (11756126_x_at) / Fold change /veh HAMP (11756126_x_at) / RFU RNFT2 (11725882_a_at) / Fold change /veh RNFT2 (11725882_a_at) / RFU NR4A2 (11747474_a_at) / Fold change /veh NR4A2 (11747474_a_at) / RFU ABCC12 (11746883_a_at) / Fold change /veh ABCC12 (11746883_a_at) / RFU TMEM136 (11760407_x_at) / Fold change /veh TMEM136 (11760407_x_at) / RFU CLDN22 /// WWC2 (11732394_at) / Fold change /veh CLDN22 /// WWC2 (11732394_at) / RFU HLA-DPB1 (11760878_x_at) / Fold change /veh HLA-DPB1 (11760878_x_at) / RFU SPINT1 (11716480_a_at) / Fold change /veh SPINT1 (11716480_a_at) / RFU GAP43 (11754022_s_at) / Fold change /veh GAP43 (11754022_s_at) / RFU A4GNT (11735810_at) / Fold change /veh A4GNT (11735810_at) / RFU PRB3 (11715151_x_at) / Fold change /veh PRB3 (11715151_x_at) / RFU TUBB4B (11761932_at) / Fold change /veh TUBB4B (11761932_at) / RFU CAPN14 (11732068_a_at) / Fold change /veh CAPN14 (11732068_a_at) / RFU TMCC2 (11721928_a_at) / Fold change /veh TMCC2 (11721928_a_at) / RFU IRGQ (11745062_a_at) / Fold change /veh IRGQ (11745062_a_at) / RFU FAM174B (11720279_a_at) / Fold change /veh FAM174B (11720279_a_at) / RFU TMPRSS4 (11748680_a_at) / Fold change /veh TMPRSS4 (11748680_a_at) / RFU FAM212B (11763350_a_at) / Fold change /veh FAM212B (11763350_a_at) / RFU PLEKHG5 (11743358_a_at) / Fold change /veh PLEKHG5 (11743358_a_at) / RFU ZSCAN30 (11745921_a_at) / Fold change /veh ZSCAN30 (11745921_a_at) / RFU CMKLR1 (11741424_a_at) / Fold change /veh CMKLR1 (11741424_a_at) / RFU LOC101060620 /// MAPK8IP1 (11723275_at) / Fold change /veh LOC101060620 /// MAPK8IP1 (11723275_at) / RFU SPTSSB (11747773_x_at) / Fold change /veh SPTSSB (11747773_x_at) / RFU PRSS12 (11739890_at) / Fold change /veh PRSS12 (11739890_at) / RFU BIN1 (11741810_x_at) / Fold change /veh BIN1 (11741810_x_at) / RFU WNT11 (11732464_a_at) / Fold change /veh WNT11 (11732464_a_at) / RFU C10orf10 (11716521_a_at) / Fold change /veh C10orf10 (11716521_a_at) / RFU C5orf56 (11738089_at) / Fold change /veh C5orf56 (11738089_at) / RFU CYB561 (11721691_x_at) / Fold change /veh CYB561 (11721691_x_at) / RFU ANKRD19P (11752326_a_at) / Fold change /veh ANKRD19P (11752326_a_at) / RFU OR2T12 /// OR2T33 /// OR2T8 (11738714_s_at) / Fold change /veh OR2T12 /// OR2T33 /// OR2T8 (11738714_s_at) / RFU VCAN (11748164_a_at) / Fold change /veh VCAN (11748164_a_at) / RFU JSRP1 (11732532_at) / Fold change /veh JSRP1 (11732532_at) / RFU KRTAP10-11 (11738290_x_at) / Fold change /veh KRTAP10-11 (11738290_x_at) / RFU MYO3A (11730013_a_at) / Fold change /veh MYO3A (11730013_a_at) / RFU EBF3 (11725865_a_at) / Fold change /veh EBF3 (11725865_a_at) / RFU CAMK2N1 (11719241_x_at) / Fold change /veh CAMK2N1 (11719241_x_at) / RFU C5orf56 (11738088_a_at) / Fold change /veh C5orf56 (11738088_a_at) / RFU OLFML3 (11715873_a_at) / Fold change /veh OLFML3 (11715873_a_at) / RFU LOC100653217 /// NTM (11731650_a_at) / Fold change /veh LOC100653217 /// NTM (11731650_a_at) / RFU MAPK11 (11762145_a_at) / Fold change /veh MAPK11 (11762145_a_at) / RFU FIZ1 (11724087_x_at) / Fold change /veh FIZ1 (11724087_x_at) / RFU OASL (11726364_x_at) / Fold change /veh OASL (11726364_x_at) / RFU SOX15 (11748057_x_at) / Fold change /veh SOX15 (11748057_x_at) / RFU CD79A (11719716_a_at) / Fold change /veh CD79A (11719716_a_at) / RFU HIST1H1D (11736915_at) / Fold change /veh HIST1H1D (11736915_at) / RFU CASKIN2 (11723855_a_at) / Fold change /veh CASKIN2 (11723855_a_at) / RFU LOC730098 (11760151_x_at) / Fold change /veh LOC730098 (11760151_x_at) / RFU OR4N2 (11742367_at) / Fold change /veh OR4N2 (11742367_at) / RFU PRRT2 (11749266_a_at) / Fold change /veh PRRT2 (11749266_a_at) / RFU SNX32 (11753110_a_at) / Fold change /veh SNX32 (11753110_a_at) / RFU CDHR5 (11726645_a_at) / Fold change /veh CDHR5 (11726645_a_at) / RFU RCAN1 (11760418_a_at) / Fold change /veh RCAN1 (11760418_a_at) / RFU FAM167A (11723789_a_at) / Fold change /veh FAM167A (11723789_a_at) / RFU FAM26E (11764081_at) / Fold change /veh FAM26E (11764081_at) / RFU ISYNA1 (11749810_s_at) / Fold change /veh ISYNA1 (11749810_s_at) / RFU ACY1 (11761880_at) / Fold change /veh ACY1 (11761880_at) / RFU 11764098_at / Fold change /veh 11764098_at / RFU SAMD14 (11745864_x_at) / Fold change /veh SAMD14 (11745864_x_at) / RFU NPB (11741838_a_at) / Fold change /veh NPB (11741838_a_at) / RFU TMPRSS6 (11731388_a_at) / Fold change /veh TMPRSS6 (11731388_a_at) / RFU KRTAP10-2 (11738614_at) / Fold change /veh KRTAP10-2 (11738614_at) / RFU ARHGAP8 /// PRR5-ARHGAP8 (11727945_x_at) / Fold change /veh ARHGAP8 /// PRR5-ARHGAP8 (11727945_x_at) / RFU KRTAP5-7 /// NADSYN1 (11734609_at) / Fold change /veh KRTAP5-7 /// NADSYN1 (11734609_at) / RFU RASL12 (11751679_a_at) / Fold change /veh RASL12 (11751679_a_at) / RFU CDKN2B (11736163_a_at) / Fold change /veh CDKN2B (11736163_a_at) / RFU PRF1 (11729649_at) / Fold change /veh PRF1 (11729649_at) / RFU, ZNF638 /// ZNF638-IT1 / Fold change vs veh, ZNF638 /// ZNF638-IT1 / RFU, PANK3 / Fold change vs veh, PANK3 / RFU, SH3YL1 / Fold change vs veh, SH3YL1 / RFU, ZEB2 / Fold change vs veh, ZEB2 / RFU, NRIP1 / Fold change vs veh, NRIP1 / RFU, PTTG1IP / Fold change vs veh, PTTG1IP / RFU, CAPN2 / Fold change vs veh, CAPN2 / RFU, MED14 / Fold change vs veh, MED14 / RFU, SNORA58 / Fold change vs veh, SNORA58 / RFU, C1orf63 / Fold change vs veh, C1orf63 / RFU, LRRFIP1 / Fold change vs veh, LRRFIP1 / RFU, NDUFAF7 / Fold change vs veh, NDUFAF7 / RFU, SLC12A2 / Fold change vs veh, SLC12A2 / RFU, IBTK / Fold change vs veh, IBTK / RFU, ESF1 / Fold change vs veh, ESF1 / Fold change vs veh, TMEM50B / RFU, TAOK1 / Fold change vs veh, TAOK1 / RFU, ACBD3 / Fold change vs veh, ACBD3 / RFU, TMA16 / Fold change vs veh, TMA16 / RFU, RWDD3 / Fold change vs veh, RWDD3 / RFU, BCAT1 / Fold change vs veh, BCAT1 / RFU, EDEM3 / Fold change vs veh, EDEM3 / RFU, TMEM33 / Fold change vs veh, TMEM33 / RFU, WDR75 / Fold change vs veh, WDR75 / RFU, AHCTF1 / Fold change vs veh, AHCTF1 / RFU, TFRC / Fold change vs veh, TFRC / RFU, ZDHHC17 / Fold change vs veh, ZDHHC17 / RFU, NOM1 / Fold change vs veh, NOM1 / RFU, ARL8B / Fold change vs veh, ARL8B / RFU, ZBTB11 / Fold change vs veh, ZBTB11 / RFU, TAMM41 / Fold change vs veh, TAMM41 / RFU, KIAA1704 /// LOC100996395 / Fold change vs veh, KIAA1704 /// LOC100996395 / RFU, ING1 / Fold change vs veh, ING1 / RFU, TRMT61B / Fold change vs veh, TRMT61B / RFU, FUBP3 / Fold change vs veh, FUBP3 / RFU, TP53 / Fold change vs veh, TP53 / RFU, TNKS2 / Fold change vs veh, TNKS2 / RFU, ZFP14 / Fold change vs veh, ZFP14 / RFU, ACTR2 / Fold change vs veh, ACTR2 / RFU, PPP3R1 / Fold change vs veh, PPP3R1 / RFU, PIK3R1 / Fold change vs veh, PIK3R1 / RFU, HNRNPA1 / Fold change vs veh, HNRNPA1 / RFU, RNF170 / Fold change vs veh, RNF170 / RFU, ZNF28 / Fold change vs veh, ZNF28 / RFU, RNGTT / Fold change vs veh, RNGTT / RFU, OGT / Fold change vs veh, OGT / RFU, BRD1 / Fold change vs veh, BRD1 / RFU, MARS / Fold change vs veh, MARS / RFU, ZNF655 / Fold change vs veh, ZNF655 / RFU, FAHD1 / Fold change vs veh, FAHD1 / RFU, BDP1 / Fold change vs veh, BDP1 / RFU, LRRCC1 / Fold change vs veh, LRRCC1 / RFU, ARID1A / Fold change vs veh, ARID1A / RFU, ZNF146 / Fold change vs veh, ZNF146 / RFU, ZNF330 / Fold change vs veh, ZNF330 / RFU, GPN3 / Fold change vs veh, GPN3 / RFU, C9orf123 / Fold change vs veh, C9orf123 / RFU, N4BP2L2 / Fold change vs veh, N4BP2L2 / RFU, ARFIP1 / Fold change vs veh, ARFIP1 / RFU, FAM179B / Fold change vs veh, FAM179B / RFU, BCL10 / Fold change vs veh, BCL10 / RFU, UHRF1BP1L / Fold change vs veh, UHRF1BP1L / RFU, BET1 / Fold change vs veh, BET1 / RFU, CNOT2 / Fold change vs veh, CNOT2 / RFU, ZNF268 / Fold change vs veh, ZNF268 / Fold change vs veh, ZNF507 / RFU, DGCR2 / Fold change vs veh, DGCR2 / RFU, WDSUB1 / Fold change vs veh, WDSUB1 / Fold change vs veh, HSP90B1 /// MIR3652 / RFU, ADSS / Fold change vs veh, ADSS / RFU, GK / Fold change vs veh, GK / RFU, ZNF148 / Fold change vs veh, ZNF148 / RFU, TAF9 / Fold change vs veh, TAF9 / RFU, SLC1A5 / Fold change vs veh, SLC1A5 / RFU, SLMO2 / Fold change vs veh, SLMO2 / RFU, ABCC4 / Fold change vs veh, ABCC4 / RFU, LOC101060439 /// RAP1B / Fold change vs veh, LOC101060439 /// RAP1B / RFU, RFX7 / Fold change vs veh, RFX7 / RFU, GTPBP10 / Fold change vs veh, GTPBP10 / RFU, CNEP1R1 / Fold change vs veh, CNEP1R1 / RFU, BIVM-ERCC5 /// ERCC5 / Fold change vs veh, BIVM-ERCC5 /// ERCC5 / RFU, ILF3 / Fold change vs veh, ILF3 / RFU 11762660_at / Fold change /veh 11762660_at / RFU VCAN (11757783_s_at) / Fold change /veh VCAN (11757783_s_at) / RFU DDX43 (11728927_at) / Fold change /veh DDX43 (11728927_at) / RFU KRT8 (11758188_x_at) / Fold change /veh KRT8 (11758188_x_at) / RFU NKD1 (11759106_at) / Fold change /veh NKD1 (11759106_at) / RFU SRD5A1 (11742802_a_at) / Fold change /veh SRD5A1 (11742802_a_at) / RFU TPSAB1 /// TPSB2 (11721975_s_at) / Fold change /veh TPSAB1 /// TPSB2 (11721975_s_at) / RFU GSTM3 (11746129_a_at) / Fold change /veh GSTM3 (11746129_a_at) / RFU IL23R (11737362_x_at) / Fold change /veh IL23R (11737362_x_at) / RFU TMEM51 (11727254_a_at) / Fold change /veh TMEM51 (11727254_a_at) / RFU PIWIL2 (11732686_x_at) / Fold change /veh PIWIL2 (11732686_x_at) / RFU ORM1 (11744905_x_at) / Fold change /veh ORM1 (11744905_x_at) / RFU CCDC152 (11743942_at) / Fold change /veh CCDC152 (11743942_at) / RFU ECM1 (11717891_a_at) / Fold change /veh ECM1 (11717891_a_at) / RFU IL23R (11748794_a_at) / Fold change /veh IL23R (11748794_a_at) / RFU TNFAIP8L3 (11732012_x_at) / Fold change /veh TNFAIP8L3 (11732012_x_at) / RFU MBOAT4 (11741988_at) / Fold change /veh MBOAT4 (11741988_at) / RFU 11764193_at / Fold change /veh 11764193_at / RFU TMEM53 (11763286_at) / Fold change /veh TMEM53 (11763286_at) / RFU MAGEB2 (11727129_at) / Fold change /veh MAGEB2 (11727129_at) / RFU TMEM200A (11744735_a_at) / Fold change /veh TMEM200A (11744735_a_at) / RFU CCDC152 (11751479_a_at) / Fold change /veh CCDC152 (11751479_a_at) / RFU FAM211A (11726209_a_at) / Fold change /veh FAM211A (11726209_a_at) / RFU RGS16 (11746705_a_at) / Fold change /veh RGS16 (11746705_a_at) / RFU VCAN (11755009_s_at) / Fold change /veh VCAN (11755009_s_at) / RFU RHOB (11743442_s_at) / Fold change /veh RHOB (11743442_s_at) / RFU RGS16 (11720943_a_at) / Fold change /veh RGS16 (11720943_a_at) / RFU RGS16 (11720944_at) / Fold change /veh RGS16 (11720944_at) / RFU, VPS4B / Fold change vs veh, VPS4B / RFU, CREB1 / Fold change vs veh, CREB1 / RFU, DNAJC13 / Fold change vs veh, DNAJC13 / RFU, GNAQ / Fold change vs veh, GNAQ / RFU, CDK5R1 / Fold change vs veh, CDK5R1 / RFU, ZRANB3 / Fold change vs veh, ZRANB3 / RFU, CUL4A / Fold change vs veh, CUL4A / RFU, CCNY / Fold change vs veh, CCNY / RFU, UFL1 / Fold change vs veh, UFL1 / RFU, COG3 / Fold change vs veh, COG3 / RFU, DIAPH2 / Fold change vs veh, DIAPH2 / RFU, SKA2 / Fold change vs veh, SKA2 / RFU, AFF3 / Fold change vs veh, AFF3 / RFU, LMF1 / Fold change vs veh, LMF1 / RFU, IPO11 / Fold change vs veh, IPO11 / RFU, DFFB / Fold change vs veh, DFFB / RFU, FOXP1 / Fold change vs veh, FOXP1 / RFU, CARD8 / Fold change vs veh, CARD8 / RFU, STRN3 / Fold change vs veh, STRN3 / RFU, ADK / Fold change vs veh, ADK / RFU, RASSF2 / Fold change vs veh, RASSF2 / RFU, WIPF1 / Fold change vs veh, WIPF1 / RFU, LARP1B / Fold change vs veh, LARP1B / RFU, RASA1 / Fold change vs veh, RASA1 / RFU, RB1 / Fold change vs veh, RB1 / RFU, PPFIA1 / Fold change vs veh, PPFIA1 / RFU, MAT2A / Fold change vs veh, MAT2A / RFU, CCT5 / Fold change vs veh, CCT5 / RFU, WDR92 / Fold change vs veh, WDR92 / RFU, CUX1 / Fold change vs veh, CUX1 / RFU, TTC7A / Fold change vs veh, TTC7A / RFU, TMEM135 / Fold change vs veh, TMEM135 / RFU, DEPTOR / Fold change vs veh, DEPTOR / RFU, CPM / Fold change vs veh, CPM / RFU, DNAJB6 / Fold change vs veh, DNAJB6 / RFU, CACNA2D3 / Fold change vs veh, CACNA2D3 / RFU, DTX4 / Fold change vs veh, DTX4 / RFU, TFCP2 / Fold change vs veh, TFCP2 / RFU, GMCL1 /// GMCL1P1 / Fold change vs veh, GMCL1 /// GMCL1P1 / RFU, AEBP2 / Fold change vs veh, AEBP2 / RFU, SNHG1 /// SNORD22 /// SNORD25 /// SNORD26 /// SNORD27 /// SNORD28 /// SNORD29 /// SNORD31 / Fold change vs veh, SNHG1 /// SNORD22 /// SNORD25 /// SNORD26 /// SNORD27 /// SNORD28 /// SNORD29 /// SNORD31 / Fold change (Aza/veh), C12orf56 (ProbeSet 11735607_a_at) / Fold change (ACY-1035/veh), C12orf56 (ProbeSet 11735607_a_at) / Fold change (Aza/veh), FGFR1OP (ProbeSet 11751329_s_at) / Fold change (ACY-1035/veh), FGFR1OP (ProbeSet 11751329_s_at) / Fold change (Aza/veh), VPS36 (ProbeSet 11739960_a_at) / Fold change (ACY-1035/veh), VPS36 (ProbeSet 11739960_a_at) / RFU SYPL1 (11715823_x_at) / Fold change /veh SYPL1 (11715823_x_at) / RFU IGFBP7 (11715501_s_at) / Fold change /veh IGFBP7 (11715501_s_at) / RFU REEP3 (11722064_at) / Fold change /veh REEP3 (11722064_at) / RFU IGLL1 (11728026_x_at) / Fold change /veh IGLL1 (11728026_x_at): dose or concentration left out as unconfirmed
Conditions: ProbeSet 11722022_s_at; LIST D

Nc1ccc(-c2cccs2)cc1NC(=O)c1ccc2c(c1)cc(C1CC1)n2CCN1CCOCC1 [ACY-1035]
Fold change vs veh, CDK5R1: 0.91
